{
  "source": "patent US6555586B2",
  "about": "(Wyeth, priority 1993, dated 2003)",
  "key": {"[1]": {"tested_on": "obesity in non-depressed outpatients", "assay": "Obesity Reduction Test: randomized double-blind comparison of venlafaxine and placebo capsules", "assay_type": "in vivo, humans", "description": "A randomized double-blind comparison of venlafaxine and placebo capsules was tested as a treatment for obesity in non-depressed outpatients. […] Each participant in the comparison weighed more than 20%, but less than 100%, above the mean value for sex, height and bone structure according to the 1983 Metropolitan Height and Weight Table. The women in the comparison of childbearing potential received a negative pregnancy test result and agreed to use medically acceptable forms of contraception throughout the period covered by the comparison.\nSubsequently the dose was increased from 50 mg/day to 150 mg/day through study day 14. On study day 15 the dose was increased to 225 mg/day (3 tablets 3 times a day) and this dose was continued for the remainder of the 70 day study. The patients in both groups were also given instructions to decrease their food intake by 20% and to increase their exercise by the same amount. These directives were given to standardize dietary instructions and to try to prevent patients from starting “crash” diets or exercise programs. A specific diet was not prescribed.\nComparisons within groups were performed on changes from baseline weight and body mass index. Body mass index was computed according to the following formula: [formula]"}, "norepinephrine uptake": {"tested_on": "norepinephrine uptake", "conditions": "cited from earlier work"}, "dopamine reuptake": {"tested_on": "dopamine reuptake", "conditions": "relative to serotonin and norepinephrine uptake; cited from earlier work"}, "monoamine oxidase": {"tested_on": "monoamine oxidase", "conditions": "cited from earlier work"}, "histaminergic receptors": {"tested_on": "histaminergic receptors", "conditions": "in vitro; cited from earlier work"}, "adrenergic receptors": {"tested_on": "adrenergic receptors", "conditions": "in vitro; cited from earlier work"}},
  "data": [
    {"smiles": "COc1ccc(C(CN(C)C)C2(O)CCCCC2)cc1", "note": "(centres unmarked) [venlafaxine, 1-[2-(dimethylamino)-1-(4-methoxyphenyl)ethyl] cyclohexanol]", "values": [
      {"measurement": "mean weight decreases and mean percent decreases from baseline, significance", "setting": "[1]; beginning at week 1", "value": "consistent statistically significant mean weight decreases and mean percent decreases from baseline beginning at week 1"},
      {"measurement": "mean percent decrease from baseline (body weight)", "setting": "[1]; week 10, venlafaxine up to 225 mg/day", "value": 3.6, "unit": "%"},
      {"measurement": "mean decrease in body weight", "setting": "[1]; week 10, venlafaxine up to 225 mg/day, change from baseline", "value": 7.5, "unit": "lb"},
      {"measurement": "inhibition of norepinephrine uptake", "setting": "norepinephrine uptake", "value": "potent inhibition"},
      {"measurement": "inhibition of dopamine reuptake", "setting": "dopamine reuptake", "value": "To a lesser degree, venlafaxine also inhibits dopamine reuptake"},
      {"measurement": "inhibitory activity on monoamine oxidase", "setting": "monoamine oxidase", "value": "no inhibitory activity"},
      {"measurement": "affinity for histaminergic receptors", "setting": "histaminergic receptors", "value": "virtually no affinity"},
      {"measurement": "affinity for adrenergic receptors", "setting": "adrenergic receptors", "value": "virtually no affinity"}
    ]}
  ]
}
